Laboratory results: ChEMBL document CHEMBL1759844, “Design, synthesis and antimycobacterial activity of cinnamide derivatives: a molecular hybridization approach” (Bioorg Med Chem Lett, 2011)

Legend:
[1] = Selectivity index, ratio of CC50 for african green monkey Vero cells to MIC for Mycobacterium tuberculosis H37Rv; format: functional
[2] = Cytotoxicity against african green monkey Vero cells after 72 hrs by MTT assay; format: cell-based; settings: chlorocebus sabaeus
[3] = system: Mycobacterium tuberculosis; assay: Antimicrobial activity against Mycobacterium tuberculosis H37Rv after 48 hrs by resazurin microplate broth microdilution method; format: functional
[4] = system: Mycobacterium tuberculosis; assay: Antimicrobial activity against Mycobacterium tuberculosis H37Rv after 48 hrs by resazurin microplate broth microdilution method in presence of rifampicin; format: functional

## Cc1ccc(/C=C/C(=O)NCCNC(=O)/C=C/c2ccc(C)cc2)cc1
[1]
  Selectivity Index: 4
[2]
  CC50 at 72 h: 565 µM
[3]
  MIC: 144 µM

## COc1ccccc1/C=C/C(=O)NCCNC(=O)/C=C/c1ccccc1OC
[1]
  Selectivity Index: 11
[2]
  CC50 at 72 h: 695 µM
[3]
  MIC: 65.8 µM

## O=C(/C=C/c1ccccc1)N1CCN(C(=O)/C=C/c2ccccc2)CC1
[1]
  Selectivity Index: 95
[2]
  CC50 at 72 h: 855 µM
[3]
  MIC: 9 µM

## O=C(/C=C/c1cccs1)NCCNC(=O)/C=C/c1cccs1
[1]
  Selectivity Index: 74
[2]
  CC50 at 72 h: 692 µM
[3]
  MIC: 9.41 µM

## O=C(/C=C/c1cccc([N+](=O)[O-])c1)NCCNC(=O)/C=C/c1cccc([N+](=O)[O-])c1
[1]
  Selectivity Index: 9
[2]
  CC50 at 72 h: 615 µM
[3]
  MIC: 68.5 µM

## COc1ccc(/C=C/C(=O)NCCNC(=O)/C=C/c2ccc(OC)cc2)cc1
[1]
  Selectivity Index: 5
[2]
  CC50 at 72 h: 680 µM
[3]
  MIC: 132 µM

## CC[C@@H](CO)NCCN[C@@H](CC)CO [ETHAMBUTOL]
[1]
  Selectivity Index: 96
[2]
  CC50 at 72 h: 1470 µM
[3]
  MIC: 15.3 µM

## O=C(/C=C/c1ccccc1)NCCN1CCN(C(=O)/C=C/c2ccccc2)CC1
[1]
  Selectivity Index: 29
[2]
  CC50 at 72 h: 480 µM
[3]
  MIC: 16.7 µM

## CO[C@H]1/C=C/O[C@@]2(C)Oc3c(C)c(O)c4c(O)c(c(/C=N/N5CCN(C)CC5)c(O)c4c3C2=O)NC(=O)/C(C)=C\C=C\[C@H](C)[C@H](O)[C@@H](C)[C@@H](O)[C@@H](C)[C@H](OC(C)=O)[C@@H]1C [RIFAMPIN]
[3]
  MIC: 0.125 µg/mL

## O=C(/C=C/c1ccco1)NCCNC(=O)/C=C/c1ccco1
[1]
  Selectivity Index: 63
[2]
  CC50 at 72 h: 683 µM
[3]
  MIC: 10.8 µM

## O=C(/C=C/c1ccccc1Cl)NCCNC(=O)/C=C/c1ccccc1Cl
[1]
  Selectivity Index: 11
[2]
  CC50 at 72 h: 725 µM
[3]
  MIC: 64.4 µM

## O=C(/C=C/c1ccccc1)NCCNC(=O)/C=C/c1ccccc1
[4]
  fractional inhibitory concentration index (FICI): 0.31
[1]
  Selectivity Index: 121
[2]
  CC50 at 72 h: 618 µM
[3]
  MIC: 5.1 µM

## O=C(/C=C/c1c(Cl)cccc1Cl)NCCNC(=O)/C=C/c1c(Cl)cccc1Cl
[1]
  Selectivity Index: 12
[2]
  CC50 at 72 h: 653 µM
[3]
  MIC: 54.8 µM

## O=C(/C=C/c1ccc(Cl)cc1)NCCNC(=O)/C=C/c1ccc(Cl)cc1
[1]
  Selectivity Index: 6
[2]
  CC50 at 72 h: 788 µM
[3]
  MIC: 129 µM

## O=C(/C=C/c1ccc(Cl)c(Cl)c1)NCCNC(=O)/C=C/c1ccc(Cl)c(Cl)c1
[1]
  Selectivity Index: 12
[2]
  CC50 at 72 h: 653 µM
[3]
  MIC: 54.8 µM

## O=C(/C=C/c1ccccc1)N1CCCN(C(=O)/C=C/c2ccccc2)CC1
[1]
  Selectivity Index: 41
[2]
  CC50 at 72 h: 708 µM
[3]
  MIC: 17.3 µM
